# According to patent US20230301300A1, “HERBICIDAL COMPOSITIONS” (SYNGENTA CROP PROTECTION AG, priority 2020, published 2023):
# Columns and labels:
# Assay in all cases: B2 Post-Emergence Efficacy - Test 2
# Format in all cases: in vivo
# [1] = system: Euphorbia hetrophylla (EPHHL); conditions: 15 days after application, 0-100 scale
# How it was run: (§1)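 Score 0–100 (0 none, 100 kill), 15 d after spraying. Treatment: IF50 formulation in aqueous spray, adjuvant Genapol X080 at 0.2% v/v, applied to plants 12 d after sowing. Glasshouse day/night 24/18 or 20/16 °C, 16 h light, 65% humidity.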
# [2] = system: Alopecurus myosuroides (ALOMY); conditions: 15 days after application, 0-100 scale
# How it was run: as §1
# Sida spinosa (SIDSP) = conditions: 15 days after application, 0-100 scale
# How it was run: as §1
# [3] = system: Xanthium strumarium (XANST); conditions: 15 days after application, 0-100 scale
# How it was run: as §1
# [4] = system: Panicum miliaceum (PANMI); conditions: 15 days after application, 0=no damage, 100=total kill
# How it was run: as §1
# [5] = system: Digitaria sanguinalis (DIGSA); conditions: 15 days after application, 0=no damage, 100=total kill
# How it was run: as §1
# Bidens pilosa (BIDPI) = conditions: 15 days after application, 0-100 scale
# How it was run: as §1
# [6] = system: Brachiaria plantaginea (BRAPL); conditions: 15 days after application, 0=no damage, 100=total kill
# How it was run: as §1
# Poa annua (POAAN) = conditions: 15 days after application, 0-100 scale
# How it was run: as §1
# Eleisine indica (ELEIN) = conditions: 15 days after application, 0=no damage, 100=total kill
# How it was run: as §1
# Sorghum bicolour (SORVU) = conditions: 15 days after application, 0=no damage, 100=total kill
# How it was run: as §1
# Avena fatua (AVEFA) = conditions: 15 days after application, 0-100 scale
# How it was run: as §1
# Glycine max (GLXMA) = conditions: 15 days after application; for Herbicidal activity GLXMA: 0-100 scale; for Herbicidal activity on a 0-100 scale, GLXMA: 0=no damage, 100=total kill
# How it was run: as §1
# Zea mays (ZEAMX) = conditions: 15 days after application; for Herbicidal activity ZEAMX: 0-100 scale; for Herbicidal activity on a 0-100 scale, ZEAMX: 0=no damage, 100=total kill
# How it was run: as §1
# Orysa sativa (ORYSA) = conditions: 15 days after application; for Herbicidal activity ORYSA: 0-100 scale; for Herbicidal activity on a 0-100 scale, ORYSA: 0=no damage, 100=total kill
# How it was run: as §1
# Setaria faberi (SETFA) = conditions: 15 days after application, 0=no damage, 100=total kill
# How it was run: as §1
# Galium aparine (GALAP) = conditions: 15 days after application, 0-100 scale
# How it was run: as §1
smiles,measurement,setting,value
"Cc1nn(C)c(=O)c(-c2c(F)ccc(Cl)c2CCc2ccccc2C(F)(F)F)c1O [Compound 1.066, 4-[3-chloro-6-fluoro-2-[2-[2-(trifluoromethyl)phenyl]ethyl]phenyl]-5-hydroxy-2,6-dimethyl-pyridazin-3-one]",Herbicidal activity EPHHL,[1]; 15 g/Ha,60
same,Herbicidal activity EPHHL,[1]; 30 g/Ha,70
same,Herbicidal activity EPHHL,[1]; 60 g/Ha,80
same,Herbicidal activity EPHHL,[1]; 125 g/Ha,90
same,Herbicidal activity EPHHL,[1]; 250 g/Ha,100
same,Herbicidal activity EPHHL,[1]; 500 g/Ha,100
same,Herbicidal activity ALOMY,[2]; 15 g/Ha,20
same,Herbicidal activity ALOMY,[2]; 30 g/Ha,50
same,Herbicidal activity ALOMY,[2]; 60 g/Ha,70
same,Herbicidal activity ALOMY,[2]; 125 g/Ha,80
same,Herbicidal activity ALOMY,[2]; 250 g/Ha,90
same,Herbicidal activity ALOMY,[2]; 500 g/Ha,90
same,Herbicidal activity SIDSP,Sida spinosa (SIDSP); 15 g/Ha,40
same,Herbicidal activity SIDSP,Sida spinosa (SIDSP); 30 g/Ha,80
same,Herbicidal activity SIDSP,Sida spinosa (SIDSP); 60 g/Ha,80
same,Herbicidal activity SIDSP,Sida spinosa (SIDSP); 125 g/Ha,90
same,Herbicidal activity SIDSP,Sida spinosa (SIDSP); 250 g/Ha,90
same,Herbicidal activity SIDSP,Sida spinosa (SIDSP); 500 g/Ha,100
same,Herbicidal activity XANST,[3]; 60 g/Ha,90
same,Herbicidal activity XANST,[3]; 250 g/Ha,100
same,Herbicidal activity XANST,[3]; 500 g/Ha,100
same,"Herbicidal activity on a 0-100 scale, PANMI",[4]; 15 g/Ha,0
same,"Herbicidal activity on a 0-100 scale, PANMI",[4]; 30 g/Ha,50
same,"Herbicidal activity on a 0-100 scale, PANMI",[4]; 60 g/Ha,60
same,"Herbicidal activity on a 0-100 scale, PANMI",[4]; 125 g/Ha,80
same,"Herbicidal activity on a 0-100 scale, PANMI",[4]; 250 g/Ha,100
same,"Herbicidal activity on a 0-100 scale, PANMI",[4]; 500 g/Ha,100
same,"Herbicidal activity on a 0-100 scale, DIGSA",[5]; 15 g/Ha,0
same,"Herbicidal activity on a 0-100 scale, DIGSA",[5]; 30 g/Ha,20
same,"Herbicidal activity on a 0-100 scale, DIGSA",[5]; 60 g/Ha,20
same,"Herbicidal activity on a 0-100 scale, DIGSA",[5]; 125 g/Ha,40
same,"Herbicidal activity on a 0-100 scale, DIGSA",[5]; 250 g/Ha,70
same,"Herbicidal activity on a 0-100 scale, DIGSA",[5]; 500 g/Ha,70
same,Herbicidal activity BIDPI,Bidens pilosa (BIDPI); 15 g/Ha,50
same,Herbicidal activity BIDPI,Bidens pilosa (BIDPI); 30 g/Ha,60
same,Herbicidal activity BIDPI,Bidens pilosa (BIDPI); 60 g/Ha,70
same,Herbicidal activity BIDPI,Bidens pilosa (BIDPI); 125 g/Ha,80
same,Herbicidal activity BIDPI,Bidens pilosa (BIDPI); 250 g/Ha,90
same,Herbicidal activity BIDPI,Bidens pilosa (BIDPI); 500 g/Ha,90
same,"Herbicidal activity on a 0-100 scale, BRAPL",[6]; 15 g/Ha,0
same,"Herbicidal activity on a 0-100 scale, BRAPL",[6]; 30 g/Ha,60
same,"Herbicidal activity on a 0-100 scale, BRAPL",[6]; 125 g/Ha,80
same,"Herbicidal activity on a 0-100 scale, BRAPL",[6]; 250 g/Ha,70
same,"Herbicidal activity on a 0-100 scale, BRAPL",[6]; 500 g/Ha,100
same,Herbicidal activity POAAN,Poa annua (POAAN); 15 g/Ha,20
same,Herbicidal activity POAAN,Poa annua (POAAN); 30 g/Ha,70
same,Herbicidal activity POAAN,Poa annua (POAAN); 60 g/Ha,80
same,Herbicidal activity POAAN,Poa annua (POAAN); 125 g/Ha,90
same,Herbicidal activity POAAN,Poa annua (POAAN); 250 g/Ha,90
same,Herbicidal activity POAAN,Poa annua (POAAN); 500 g/Ha,90
same,"Herbicidal activity on a 0-100 scale, ELEIN",Eleisine indica (ELEIN); 15 g/Ha,0
same,"Herbicidal activity on a 0-100 scale, ELEIN",Eleisine indica (ELEIN); 30 g/Ha,20
same,"Herbicidal activity on a 0-100 scale, ELEIN",Eleisine indica (ELEIN); 60 g/Ha,70
same,"Herbicidal activity on a 0-100 scale, ELEIN",Eleisine indica (ELEIN); 125 g/Ha,70
same,"Herbicidal activity on a 0-100 scale, ELEIN",Eleisine indica (ELEIN); 250 g/Ha,70
same,"Herbicidal activity on a 0-100 scale, ELEIN",Eleisine indica (ELEIN); 500 g/Ha,80
same,"Herbicidal activity on a 0-100 scale, SORVU",Sorghum bicolour (SORVU); 15 g/Ha,0
same,"Herbicidal activity on a 0-100 scale, SORVU",Sorghum bicolour (SORVU); 30 g/Ha,20
same,"Herbicidal activity on a 0-100 scale, SORVU",Sorghum bicolour (SORVU); 60 g/Ha,60
same,"Herbicidal activity on a 0-100 scale, SORVU",Sorghum bicolour (SORVU); 125 g/Ha,80
same,"Herbicidal activity on a 0-100 scale, SORVU",Sorghum bicolour (SORVU); 250 g/Ha,90
same,"Herbicidal activity on a 0-100 scale, SORVU",Sorghum bicolour (SORVU); 500 g/Ha,100
same,Herbicidal activity AVEFA,Avena fatua (AVEFA); 15 g/Ha,0
same,Herbicidal activity AVEFA,Avena fatua (AVEFA); 30 g/Ha,20
same,Herbicidal activity AVEFA,Avena fatua (AVEFA); 60 g/Ha,40
same,Herbicidal activity AVEFA,Avena fatua (AVEFA); 125 g/Ha,90
same,Herbicidal activity AVEFA,Avena fatua (AVEFA); 250 g/Ha,90
same,Herbicidal activity AVEFA,Avena fatua (AVEFA); 500 g/Ha,90
same,Herbicidal activity GLXMA,Glycine max (GLXMA); 15 g/Ha,20
same,"Herbicidal activity on a 0-100 scale, GLXMA",Glycine max (GLXMA); 15 g/Ha,20
same,Herbicidal activity GLXMA,Glycine max (GLXMA); 30 g/Ha,40
same,"Herbicidal activity on a 0-100 scale, GLXMA",Glycine max (GLXMA); 30 g/Ha,40
same,Herbicidal activity GLXMA,Glycine max (GLXMA); 60 g/Ha,70
same,"Herbicidal activity on a 0-100 scale, GLXMA",Glycine max (GLXMA); 60 g/Ha,70
same,Herbicidal activity GLXMA,Glycine max (GLXMA); 125 g/Ha,70
same,"Herbicidal activity on a 0-100 scale, GLXMA",Glycine max (GLXMA); 125 g/Ha,70
same,Herbicidal activity GLXMA,Glycine max (GLXMA); 250 g/Ha,90
same,"Herbicidal activity on a 0-100 scale, GLXMA",Glycine max (GLXMA); 250 g/Ha,90
same,Herbicidal activity GLXMA,Glycine max (GLXMA); 500 g/Ha,90
same,"Herbicidal activity on a 0-100 scale, GLXMA",Glycine max (GLXMA); 500 g/Ha,90
same,Herbicidal activity ZEAMX,Zea mays (ZEAMX); 15 g/Ha,0
same,"Herbicidal activity on a 0-100 scale, ZEAMX",Zea mays (ZEAMX); 15 g/Ha,0
same,Herbicidal activity ZEAMX,Zea mays (ZEAMX); 30 g/Ha,20
same,"Herbicidal activity on a 0-100 scale, ZEAMX",Zea mays (ZEAMX); 30 g/Ha,20
same,Herbicidal activity ZEAMX,Zea mays (ZEAMX); 60 g/Ha,20
same,"Herbicidal activity on a 0-100 scale, ZEAMX",Zea mays (ZEAMX); 60 g/Ha,20
same,Herbicidal activity ZEAMX,Zea mays (ZEAMX); 125 g/Ha,20
same,"Herbicidal activity on a 0-100 scale, ZEAMX",Zea mays (ZEAMX); 125 g/Ha,20
same,Herbicidal activity ZEAMX,Zea mays (ZEAMX); 250 g/Ha,30
same,"Herbicidal activity on a 0-100 scale, ZEAMX",Zea mays (ZEAMX); 250 g/Ha,30
same,Herbicidal activity ZEAMX,Zea mays (ZEAMX); 500 g/Ha,70
same,"Herbicidal activity on a 0-100 scale, ZEAMX",Zea mays (ZEAMX); 500 g/Ha,70
same,Herbicidal activity ORYSA,Orysa sativa (ORYSA); 15 g/Ha,0
same,"Herbicidal activity on a 0-100 scale, ORYSA",Orysa sativa (ORYSA); 15 g/Ha,0
same,Herbicidal activity ORYSA,Orysa sativa (ORYSA); 30 g/Ha,0
same,"Herbicidal activity on a 0-100 scale, ORYSA",Orysa sativa (ORYSA); 30 g/Ha,0
same,Herbicidal activity ORYSA,Orysa sativa (ORYSA); 60 g/Ha,0
same,"Herbicidal activity on a 0-100 scale, ORYSA",Orysa sativa (ORYSA); 60 g/Ha,0
same,Herbicidal activity ORYSA,Orysa sativa (ORYSA); 125 g/Ha,10
same,"Herbicidal activity on a 0-100 scale, ORYSA",Orysa sativa (ORYSA); 125 g/Ha,10
same,Herbicidal activity ORYSA,Orysa sativa (ORYSA); 250 g/Ha,20
same,"Herbicidal activity on a 0-100 scale, ORYSA",Orysa sativa (ORYSA); 250 g/Ha,20
same,Herbicidal activity ORYSA,Orysa sativa (ORYSA); 500 g/Ha,40
same,"Herbicidal activity on a 0-100 scale, ORYSA",Orysa sativa (ORYSA); 500 g/Ha,40
same,"Herbicidal activity on a 0-100 scale, SETFA",Setaria faberi (SETFA); 15 g/Ha,0
same,"Herbicidal activity on a 0-100 scale, SETFA",Setaria faberi (SETFA); 30 g/Ha,70
same,"Herbicidal activity on a 0-100 scale, SETFA",Setaria faberi (SETFA); 60 g/Ha,70
same,"Herbicidal activity on a 0-100 scale, SETFA",Setaria faberi (SETFA); 125 g/Ha,80
same,"Herbicidal activity on a 0-100 scale, SETFA",Setaria faberi (SETFA); 250 g/Ha,90
same,"Herbicidal activity on a 0-100 scale, SETFA",Setaria faberi (SETFA); 500 g/Ha,90
same,Herbicidal activity GALAP,Galium aparine (GALAP); 15 g/Ha,20
same,Herbicidal activity GALAP,Galium aparine (GALAP); 30 g/Ha,20
same,Herbicidal activity GALAP,Galium aparine (GALAP); 60 g/Ha,20
same,Herbicidal activity GALAP,Galium aparine (GALAP); 125 g/Ha,20
same,Herbicidal activity GALAP,Galium aparine (GALAP); 250 g/Ha,30
same,Herbicidal activity GALAP,Galium aparine (GALAP); 500 g/Ha,90
